Experimental data reported in US20190233884A1 (University of Southern California, priority 2016, published 2019).

Tested on: patients with refractory metastatic colorectal cancer (mCRC)
Experiment: PFS, OS and disease control in the training (evaluation) cohort of refractory mCRC patients receiving TAS-102 (n=52, Japan), by baseline characteristics, SNP genotype and toxicity
Assay type: in vivo, human
Conditions: evaluation cohort
Procedure: All patients underwent the treatment in salvage-line setting. […]
Genomic DNA was extracted from peripheral whole blood in patients of all cohorts using the QIAmp Kit (Qiagen, Valencia, Calif., USA) according to the manufacturer's protocol (www.qiagen.com). The candidate SNPs were genotyped using PCR-based direct DNA sequence analysis by ABI 3100A Capillary Genetic Analyzer and Sequencing Scanner v1.0 (Applied Biosystems). Amplification of extracted DNA was carried out using both forward and reverse primers for each gene polymorphism as shown in Table 1. […] The investigators analyzing SNPs were blinded to the clinical data of the study patients.
The primary endpoint in this study was progression-free survival (PFS), and the secondary endpoints were overall survival (OS) and disease control rate (DCR). PFS was calculated from the date of starting treatment to the first observation of disease progression or death from any cause. If a patient had no disease progression or death, PFS was censored at the date of last follow up. OS was calculated from the date of starting treatment until the date of death from any cause or the date of the last follow-up, at which point OS was censored. The disease control rate (DCR) was defined as the proportion of patients who achieved a stable disease (SD) or […] according to RECISTv1.1. Chi-square test was used to examine the difference in baseline patient characteristics among the three cohorts. Allelic distribution of all SNPs by ethnicity for deviation from Hardy-Weinberg equilibrium and the allelic frequencies of SNPs were tested using the Chi-square tests with one degree of freedom. The associations between candidate SNPs and disease control, and toxicities were examined using contingency tables and Fisher's exact test. The associations of SNPs with PFS and OS were analysed using Kaplan-Meier curves and the log-rank test. Because the true mode of inheritance of candidate SNPs was not established yet, a codominant or dominant genetic model if appropriate was considered.
All patients underwent the treatment in salvage-line setting. […] In all patients, adverse events were graded according to the Common Terminology Criteria for Adverse Events, version 4.0. […]
Genomic DNA was extracted from peripheral whole blood in patients of all cohorts using the QIAmp Kit (Qiagen, Valencia, Calif., USA) according to the manufacturer's protocol (www.qiagen.com). The candidate SNPs were tested using PCR-based direct DNA sequence analysis by ABI 3100A Capillary Genetic Analyzer and Sequencing Scanner v1.0 (Applied Biosystems). […] The investigators analyzing SNPs were blinded to the clinical data.
The primary endpoint in this study was progression-free survival (PFS), and the secondary endpoints were overall survival (OS) and disease control rate (DCR).

[1] = CHEK2 rs2267130 Any C vs T/T (Ref.), multivariable
[2] = CHEK2 rs2267130 Any C vs T/T (Ref.), univariate
[3] = CHEK2 rs2267130 C/C vs T/T (Ref.), multivariable
[4] = CHEK2 rs2267130 C/C vs T/T (Ref.), univariate
[5] = CHEK2 rs2267130 T/C vs T/T (Ref.), multivariable
[6] = CHEK2 rs2267130 T/C vs T/T (Ref.), univariate
[7] = Che1 rs1564796 T/C and C/C grouped together
[8] = FANCD2 rs6792811 G/A and G/G grouped together

Trifluridine/tipiracil [TAS-102]
PD, patients n (%) (BRCA1 rs16941 T/C): 15 (68%)
Disease Control Rate SD, patients n (%) (BRCA1 rs16941 T/T): 7 (37%)
PD, patients n (%) (BRCA1 rs16941 T/T): 12 (63%)
Disease Control Rate SD, patients n (%) (BRCA1 rs799917 A/A): 1 (20%)
PD, patients n (%) (BRCA1 rs799917 A/A): 4 (80%)
Disease Control Rate SD, patients n (%) (BRCA1 rs799917 Any A): 8 (30%)
PD, patients n (%) (BRCA1 rs799917 Any A): 19 (70%)
Disease Control Rate SD, patients n (%) (BRCA1 rs799917 G/A): 7 (32%)
PD, patients n (%) (BRCA1 rs799917 G/A): 15 (68%)
Disease Control Rate SD, patients n (%) (BRCA1 rs799917 G/G): 7 (37%)
PD, patients n (%) (BRCA1 rs799917 G/G): 12 (63%)
Disease Control Rate SD, patients n (%) (BRCA2 rs144848 A/A): 8 (29%)
PD, patients n (%) (BRCA2 rs144848 A/A): 20 (71%)
Disease Control Rate SD, patients n (%) (BRCA2 rs144848 A/C): 6 (46%)
PD, patients n (%) (BRCA2 rs144848 A/C): 7 (54%)
Disease Control Rate SD, patients n (%) (BRCA2 rs144848 Any C): 7 (39%)
PD, patients n (%) (BRCA2 rs144848 Any C): 11 (61%)
Disease Control Rate SD, patients n (%) (BRCA2 rs144848 C/C): 1 (20%)
PD, patients n (%) (BRCA2 rs144848 C/C): 4 (80%)
Disease Control CR/PR/SD, patients n (%) (CHEK2 rs2267130 Any C): 12 (46%)
Median OS (95% CI) (CHEK2 rs2267130 Any C): 8.3 (5.7, 15.6+) months
Median PFS (95% CI) (CHEK2 rs2267130 Any C): 3.4 (2.1, 4.6) months
PD, patients n (%) (CHEK2 rs2267130 Any C): 14 (54%)
HR OS (95% CI) [1]: 0.71 (0.29, 1.77)
HR PFS (95% CI) [1]: 0.49 (0.26, 0.94)
HR OS (95% CI) [2]: 0.71 (0.29, 1.74)
HR PFS (95% CI) [2]: 0.48 (0.25, 0.90)
Disease Control CR/PR/SD, patients n (%) (CHEK2 rs2267130 C/C): 3 (43%)
Median OS (95% CI) (CHEK2 rs2267130 C/C): 5.7 (1.4, 10.7+) months
Median PFS (95% CI) (CHEK2 rs2267130 C/C): 2.7 (0.9, 4.6+) months
PD, patients n (%) (CHEK2 rs2267130 C/C): 4 (57%)
HR OS (95% CI) [3]: 1.31 (0.39, 4.42)
HR PFS (95% CI) [3]: 0.59 (0.23, 1.51)
HR OS (95% CI) [4]: 1.21 (0.37, 3.99)
HR PFS (95% CI) [4]: 0.62 (0.25, 1.58)
Disease Control CR/PR/SD, patients n (%) (CHEK2 rs2267130 T/C): 9 (47%)
Median OS (95% CI) (CHEK2 rs2267130 T/C): 12.4 (6.3, 15.6+) months
Median PFS (95% CI) (CHEK2 rs2267130 T/C): 3.7 (2.1, 5.2) months
PD, patients n (%) (CHEK2 rs2267130 T/C): 10 (53%)
HR OS (95% CI) [5]: 0.56 (0.20, 1.55)
HR PFS (95% CI) [5]: 0.46 (0.22, 0.94)
HR OS (95% CI) [6]: 0.59 (0.22, 1.60)
HR PFS (95% CI) [6]: 0.44 (0.22, 0.89)
Disease Control CR/PR/SD, patients n (%) (CHEK2 rs2267130 T/T): 3 (15%)
Median OS (95% CI) (CHEK2 rs2267130 T/T): 8.1 (4.4, 8.7+) months
Median PFS (95% CI) (CHEK2 rs2267130 T/T): 2.1 (1.6, 2.9) months
PD, patients n (%) (CHEK2 rs2267130 T/T): 17 (85%)
PFS (CHEK2 rs2267130 T/T): 2.1 months
Disease Control Rate SD, patients n (%) (CHEK2 rs22236142 Any C): 7 (27%)
PD, patients n (%) (CHEK2 rs22236142 Any C): 19 (73%)
Disease Control Rate SD, patients n (%) (CHEK2 rs22236142 C/C): 2 (25%)
PD, patients n (%) (CHEK2 rs22236142 C/C): 6 (75%)
Disease Control Rate SD, patients n (%) (CHEK2 rs22236142 G/C): 5 (28%)
PD, patients n (%) (CHEK2 rs22236142 G/C): 13 (72%)
Disease Control Rate SD, patients n (%) (CHEK2 rs22236142 G/G): 8 (40%)
PD, patients n (%) (CHEK2 rs22236142 G/G): 12 (60%)
Disease Control Rate SD, patients n (%) (Che1 rs1045056 T/C): 2 (22%)
PD, patients n (%) (Che1 rs1045056 T/C): 7 (78%)
Disease Control Rate SD, patients n (%) (Che1 rs1045056 T/T): 13 (35%)
PD, patients n (%) (Che1 rs1045056 T/T): 24 (65%)
Disease Control Rate SD, patients n (%) [7]: 3 (25%)
PD, patients n (%) [7]: 8 (67%)
Disease Control Rate SD, patients n (%) (Che1 rs1564796 T/T): 12 (34%)
PD, patients n (%) (Che1 rs1564796 T/T): 23 (66%)
Disease Control Rate SD, patients n (%) (FANCD2 rs2272125 T/G): 3 (50%)
PD, patients n (%) (FANCD2 rs2272125 T/G): 3 (50%)
Disease Control Rate SD, patients n (%) (FANCD2 rs2272125 T/T): 12 (30%)
PD, patients n (%) (FANCD2 rs2272125 T/T): 28 (70%)
Disease Control Rate SD, patients n (%) (FANCD2 rs6792811 A/A): 10 (33%)
PD, patients n (%) (FANCD2 rs6792811 A/A): 20 (67%)
Disease Control Rate SD, patients n (%) [8]: 5 (29%)
PD, patients n (%) [8]: 11 (71%)
Disease Control Rate SD, patients n (%) (PCNA rs25406 A/A): 4 (36%)
PD, patients n (%) (PCNA rs25406 A/A): 7 (64%)
Disease Control Rate SD, patients n (%) (PCNA rs25406 Any A): 12 (44%)
PD, patients n (%) (PCNA rs25406 Any A): 15 (56%)
Disease Control Rate SD, patients n (%) (PCNA rs25406 G/A): 8 (50%)
PD, patients n (%) (PCNA rs25406 G/A): 8 (50%)
Disease Control Rate SD, patients n (%) (PCNA rs25406 G/G): 3 (19%)
PD, patients n (%) (PCNA rs25406 G/G): 13 (81%)
Disease Control Rate SD, patients n (%) (Pin1 rs2233678 G/C): 0%
PD, patients n (%) (Pin1 rs2233678 G/C): 2 (100%)
Disease Control Rate SD, patients n (%) (Pin1 rs2233678 G/G): 15 (34%)
PD, patients n (%) (Pin1 rs2233678 G/G): 29 (66%)
Disease Control Rate SD, patients n (%) (Pin1 rs2233679 Any T): 11 (38%)
PD, patients n (%) (Pin1 rs2233679 Any T): 18 (62%)
Disease Control Rate SD, patients n (%) (Pin1 rs2233679 C/C): 4 (24%)
PD, patients n (%) (Pin1 rs2233679 C/C): 13 (76%)
Disease Control Rate SD, patients n (%) (Pin1 rs2233679 C/T): 8 (36%)
PD, patients n (%) (Pin1 rs2233679 C/T): 14 (64%)
Disease Control Rate SD, patients n (%) (Pin1 rs2233679 T/T): 3 (43%)
